From PMC6372667 (Experimental & Molecular Medicine, 2019)
Read-outs that look alike come from different tables or passages of the source.

Legend:
[1] = biological target: T1, BACE1 (human recombinant β-secretase) (Homo sapiens, UniProt P56817); test: In vitro BACE1 FRET enzyme assay; format: biochemical
Excerpt: (§1) BACE1 (human recombinant β-secretase) ([…]) and the BACE1 FRET (fluorescence resonance energy transfer) assay kit Red were purchased from ThermoFisher Scientific (P2985; Waltham, MA, USA). […] For the cell culture experiment, Dulbecco’s modified Eagle’s medium (DMEM), Opti-MEM, fetal bovine serum (FBS), and penicillin/streptomycin were obtained from Capricorn Scientific (Ebsdorfergrund, Germany). β-secretase inhibitor III (β-SI) was purchased from Calbiochem (Darmstadt, Germany). The protease inhibitor mixture (a mixture of AEBSF, pepstatin A, E-64, bestain, leupeptin, and aprotinin) was purchased from Sigma-Aldrich (St. Louis, MO, USA). Enzyme-linked immunosorbent assay (ELISA) kits for Aβ40 and Aβ42 were obtained from IBL (Kunma, Japan). All chemicals and solvents used were reagent grade, purchased from commercial sources, and used as received.
The BACE1 FRET assay was carried out according to the manufacturer’s instructions with slight modifications as previously described. The assay was performed in a […] black plate using a multi-pipette.

Electric eel AChE [2] = biological target: T2, Electric eel AChE (Electrophorus electricus, UniProt O42275); test: In vitro cholinesterase enzyme assay (Ellman), AChE; format: biochemical
T2 construct: purchased Sigma-Aldrich Co
T2 sequence (O42275 24-633): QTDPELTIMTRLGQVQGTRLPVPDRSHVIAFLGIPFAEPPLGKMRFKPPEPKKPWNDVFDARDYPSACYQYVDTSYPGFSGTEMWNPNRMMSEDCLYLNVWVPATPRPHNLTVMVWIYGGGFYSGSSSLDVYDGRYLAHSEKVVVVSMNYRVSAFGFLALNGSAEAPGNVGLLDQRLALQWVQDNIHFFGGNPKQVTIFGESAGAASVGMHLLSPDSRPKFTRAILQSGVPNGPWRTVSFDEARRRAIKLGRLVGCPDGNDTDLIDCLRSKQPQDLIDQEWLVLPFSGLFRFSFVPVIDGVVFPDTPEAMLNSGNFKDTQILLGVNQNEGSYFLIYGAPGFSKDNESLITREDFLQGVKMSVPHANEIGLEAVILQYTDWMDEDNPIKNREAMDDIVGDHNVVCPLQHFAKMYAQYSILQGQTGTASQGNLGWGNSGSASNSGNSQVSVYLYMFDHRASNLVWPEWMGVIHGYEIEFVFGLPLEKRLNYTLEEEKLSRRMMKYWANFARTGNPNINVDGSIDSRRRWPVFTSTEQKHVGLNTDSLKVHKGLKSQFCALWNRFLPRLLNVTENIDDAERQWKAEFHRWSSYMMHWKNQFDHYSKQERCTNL
Excerpt: as §1
(§2) The inhibitory activities of pterosin derivatives against cholinesterases were measured using the method developed by Ellman et al.[32]. The reaction mixture contained 140 μL of sodium phosphate buffer (pH 8.0), 20 μL of test sample solution (final concentration of the compound 100 μM), and 20 μL of AChE or BChE solution, mixed and incubated for 15 min at room temperature. […] The reactions were initiated following the addition of 10 μL of DTNB and 10 μL of acetyl thiocholine iodide for the AChE assay or butyryl thiocholine chloride for the BChE assay in 96-well microplates, which were incubated for 15 min.

horse serum BChE [3] = biological target: T3, horse serum BChE (Equus caballus, UniProt P81908); test: In vitro cholinesterase enzyme assay (Ellman), BChE; format: biochemical
T3 construct: horse serum BChE (EC 3.1.1.8); purchased Sigma-Aldrich Co; host or cells: horse serum
T3 sequence (P81908 whole entry): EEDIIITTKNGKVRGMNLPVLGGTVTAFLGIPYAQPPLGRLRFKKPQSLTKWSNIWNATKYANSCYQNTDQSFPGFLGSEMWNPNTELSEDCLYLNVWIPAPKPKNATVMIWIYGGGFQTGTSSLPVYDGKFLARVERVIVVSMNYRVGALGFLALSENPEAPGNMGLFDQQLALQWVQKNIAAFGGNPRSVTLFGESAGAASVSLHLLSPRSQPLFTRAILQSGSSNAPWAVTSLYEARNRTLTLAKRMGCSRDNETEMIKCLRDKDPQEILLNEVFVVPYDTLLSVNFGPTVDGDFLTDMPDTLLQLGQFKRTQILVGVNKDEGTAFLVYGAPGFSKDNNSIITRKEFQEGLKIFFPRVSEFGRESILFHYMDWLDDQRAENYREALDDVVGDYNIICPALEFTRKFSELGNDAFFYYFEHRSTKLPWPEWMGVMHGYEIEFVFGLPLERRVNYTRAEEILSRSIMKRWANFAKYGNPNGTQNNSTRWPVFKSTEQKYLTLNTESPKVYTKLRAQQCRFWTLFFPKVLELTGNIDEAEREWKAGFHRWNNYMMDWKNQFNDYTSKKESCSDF
Excerpt: as §1, §2

[4] = test system: SH-SY5Y human neuroblastoma; test: MTT cytotoxicity assay, SH-SY5Y; format: cell-based; details: 24 h
Experimental: (§3) Cytotoxicity was assessed using the MTT assay. Briefly, the cells were seeded into a 96-well plate at a density of 1×10^5 cells per well in 100 µL of corresponding media and incubated at 37 °C in an incubator under 5% CO2 tension for 24 h. The culture media were then replaced with 100 µL of fresh serum-free media in the presence of varied concentrations of pterosin derivatives, and cells were incubated for an additional 24 h. The control was treated with an equal amount of DMSO present in the assay for a 5 mM concentration. Then, 100 µL of MTT solution (0.5 mg/mL in Phosphate Buffered Saline (PBS)) was added to each culture. To measure the proportion of surviving cells, the media were replaced with 100 µL of DMSO 2 h after the administration of MTT solution. The absorbance was measured at 570 nm using a spectrophotometric plate reader (Molecular Devices, Sunnyvale, CA, USA).

C6 rat glial cells = test: MTT cytotoxicity assay, C6; format: cell-based; details: 24 h
Experimental: as §3

[5] = test system: NIH3T3 mouse embryo fibroblasts; test: MTT cytotoxicity assay, NIH3T3; format: cell-based; details: 24 h
Experimental: as §3

B16F10 mouse melanoma = test: MTT cytotoxicity assay, B16F10; format: cell-based; details: 24 h
Experimental: as §3

[6] = test system: SH-SY5Y, C6, NIH3T3 and B16F10 cell lines; test: MTT cytotoxicity assay, all cell lines tested; format: cell-based
Experimental: as §3

[7] = biological target: T1, BACE1 (human recombinant β-secretase); test: Kinetic analysis of BACE1 inhibition (Dixon and Lineweaver−Burk plots); format: biochemical; details: for Inhibition type BACE1: Dixon and Lineweaver−Burk plots
Experimental: (§4) The Ki was determined by interpretation of the Dixon plot, with the value of the x-axis intercept taken as −Ki.
Dixon plots for BACE1 inhibition by pterosin derivatives.
Dixon plots for BACE1 inhibition by pteroside derivatives.

Electric eel AChE [8] = biological target: T2, Electric eel AChE; test: Kinetic analysis of AChE inhibition (Dixon and Lineweaver−Burk plots); format: biochemical; details: for Inhibition type AChE: Dixon and Lineweaver−Burk plots
Experimental: as §4
Dixon plots for AChE inhibition by pterosin derivatives. (2S,3R)-Pterosin C (A), (2R,3R)-pterosin C (B), and (2R)-pterosin B (C) were tested in the presence of substrate concentrations of 0.1 mM (●), 0.3 mM (○), and 0.6 mM (▼). Lineweaver-Burk plots for AChE inhibition were generated with inhibitor concentrations of 0 µM (Δ), 4 µM (▼), 20 µM (○), and 100 µM (●) for (2S,3R)-pterosin C (D) and (2R,3R)-pterosin C (E); and 0 µM (Δ), 2 µM (▼), 10 µM (○), and 50 µM (●) for (2R)-pterosin B (F).
Dixon plots for AChE inhibition by pteroside derivatives. (2R)-pteroside B (A), (2R,3R)-pteroside C (B), and (3S)-pteroside D (C) were tested in the presence of substrate concentrations of 0.1 mM (●), 0.3 mM (○), and 0.6 mM (▼). Lineweaver-Burk plots for AChE inhibition were generated with inhibitor concentrations of 0 µM (Δ), 0.8 µM (▼), 4 µM (○), and 20 µM (●) for (2R)-pteroside B (D), (2R,3R)-pteroside C (E), and (3S)-pteroside D (F).

horse serum BChE [9] = biological target: T3, horse serum BChE; test: Kinetic analysis of BChE inhibition (Dixon and Lineweaver−Burk plots); format: biochemical; details: for Inhibition type BChE: Dixon and Lineweaver−Burk plots
Experimental: as §4
Dixon plots for BChE inhibition by pterosin derivatives. (2S,3R)-Pterosin C (A), (2R,3R)-pterosin C (B), and (2R)-pterosin B (C) were tested in the presence of substrate concentrations of 0.2 mM (●), 0.4 mM (○), and 0.8 mM (▼).
Dixon plots for BChE inhibition by pteroside derivatives. (2R)-pteroside B (A), (2R,3R)-pteroside C (B), and (3S)-pteroside D (C) were tested in the presence of substrate concentrations of 0.2 mM (●), 0.4 mM (○), and 0.8 mM (▼). Lineweaver-Burk plots for BChE inhibition were generated with inhibitor concentrations of 0 µM (Δ), 4 µM (▼), 20 µM (○), and 100 µM (●) for (2R)-pteroside B (D); 0 µM (Δ), 0.8 µM (▼), 4 µM (○), and 20 µM (●) for (2R,3R)-pteroside C (E) and (3S)-pteroside D (F).

in vitro = in vitro ADME; details: for BBB permeation class: classified by Pe, given in words; for Papp at 4 h, 25 µg/mL: pig, PAMPA, read-out: PAMPA-BBB permeability Pe
Experimental: PAMPA (parallel artificial membrane permeation assay) was used as a high-throughput assay to predict BBB permeation. Porcine polar brain lipid (PBL) was used as an artificial membrane to predict BBB permeation. Initially, the test compound was dissolved in DMSO at 5 mg/mL. This compound stock solution (10 µL) was diluted 200-fold in a universal buffer at pH 7.4 and mixed with a multi 8-channel pipette to obtain the secondary stock solution (final concentration 25 µg/mL). The secondary stock solution (200 µL) was placed in the donor wells. The filter membrane was coated with PBL in dodecane (4 mL volume of 20 mg/mL PBL in dodecane), and 5 µL of BBB-1 lipid solution was spread on PBL by pipette. The acceptor well was filled with […] of Acceptor Sink Buffer. The acceptor filter plate was cautiously positioned on the donor plate to assemble a “sandwich” (comprising an aqueous acceptor, artificial lipid membrane and aqueous donor with test compound on the top, middle and bottom, respectively). The test compound diffuses from the donor well to the acceptor well through the lipid membrane. After 4 h of incubation at pH 7.4 and 25 °C, the concentration of the compound in the acceptor, donor, reference and blank wells was estimated with a UV plate reader, Epoch Microplate Spectrophotometer (BioTek Instruments, Inc., Winooski, VT, USA). […] Samples were analyzed in quadruplets, and the average of the four runs was reported. To monitor the consistency of the analysis set, quality control standards were run with each sample set.
PAMPA-BBB, an in vitro artificial membrane permeability assay for the BBB, is one of the most reliable physicochemical screening tools in the early stage discovery of CNS-targeted drugs. The PAMPA-BBB system models the transcellular passive diffusion of chemicals across the BBB and measures strictly passive transport mechanisms via an artificial lipid membrane on effective permeability (Pe, cm/s).

[10] = mean ± S.D. of three experiments
[11] = mean ± S.D. of three experiments, read-out: IC50 AChE
[12] = mean ± S.D. of three experiments, read-out: IC50 BChE
[13] = determined by Dixon plot, read-out: Ki BACE1
[14] = determined by Dixon plot, read-out: Ki AChE
[15] = determined by Dixon plot, read-out: Ki BChE
[16] = 4 h, pH 7.4, 25 °C, mean ± SD of quadruple experiments

T1 sequence (P56817 46-501): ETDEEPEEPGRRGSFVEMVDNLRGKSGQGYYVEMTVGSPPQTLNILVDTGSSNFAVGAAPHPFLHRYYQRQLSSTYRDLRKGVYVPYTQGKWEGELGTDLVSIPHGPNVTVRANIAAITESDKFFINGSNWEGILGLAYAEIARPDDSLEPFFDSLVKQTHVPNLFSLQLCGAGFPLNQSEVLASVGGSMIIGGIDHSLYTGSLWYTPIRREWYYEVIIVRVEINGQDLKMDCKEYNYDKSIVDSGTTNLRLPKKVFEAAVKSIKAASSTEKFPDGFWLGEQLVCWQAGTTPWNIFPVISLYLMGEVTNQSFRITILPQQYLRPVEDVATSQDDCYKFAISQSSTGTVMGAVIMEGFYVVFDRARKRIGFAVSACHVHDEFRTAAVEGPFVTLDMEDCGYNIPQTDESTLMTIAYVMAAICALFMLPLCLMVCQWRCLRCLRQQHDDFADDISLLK

Row | SMILES | IC50 [1, 10] [µM] | IC50 (Electric eel AChE [2]; [11]) [µM] | IC50 (horse serum BChE [3]; [12]) [µM] | LD50 Based on MTT Assay, SY-SY5Y [4] | LD50 Based on MTT Assay, C6 (C6 rat glial cells) | LD50 Based on MTT Assay, NIH3T3 [5] | LD50 Based on MTT Assay, B16F10 (B16F10 mouse melanoma) | LD50, cell lines tested [6] | Inhibition type BACE1 [7] | Ki [7, 13] [µM] | Inhibition type AChE (Electric eel AChE [8]) | Ki (Electric eel AChE [8]; [14]) [µM] | Inhibition type BChE (horse serum BChE [9]) | Ki (horse serum BChE [9]; [15]) [µM] | BBB permeation class (in vitro; PAMPA-BBB) | Papp at 4 h, 25 µg/mL (in vitro; [16]) [×10⁻⁶ cm/s] | IC50 (Electric eel AChE [2]) [µM] | IC50 (horse serum BChE [3]) [µM] | other results
1 | Cc1cc2c(c(C)c1CCO)C(=O)C(C)(C)C2O (stereo in doubt) [(3R)-Pterosin D, (3R)-pterosin D] | 92.5 ± 7 | 68.7 ± 3.7 | > 125 | >5,000 µM | >5,000 µM | >5,000 µM | >5,000 µM | above 5 mM |  |  |  |  |  |  |  |  |  |  | IC50 BChE (horse serum BChE [3]; [10]): inactive at the concentrations tested
2 | Cc1cc2c(c(C)c1CCOC1OC(CO)C(O)C(O)C1O)C(=O)C(C)C2 [(2R)-Pteroside B, (2R)-pteroside B] | 18 ± 2.8 | 2.55 ± 0.23 | 62 ± 0.71 | >5,000 µM | >5,000 µM | >5,000 µM | >5,000 µM | above 5 mM | Noncompetitive | 23.1 | Mixed-type | 4.89 | Mixed-type | 22.6 | very low BBB permeability | 0.48 ± 0.29 |  |  | 
3 | Cc1cc2c(c(C)c1CCOC1OC(CO)C(O)C(O)C1O)C(=O)C(C)(CO)C2 [(2S)-Pteroside A, (2S)-pteroside A] | 84.6 ± 6 |  |  | >5,000 µM | >5,000 µM | >5,000 µM | >5,000 µM | above 5 mM |  |  |  |  |  |  |  |  |  |  | 
4 | Cc1c(CCO)c(CO)cc2c1C(=O)[C@@H](C)C2 [(2S)-Pterosin P, (2S)-pterosin P] | 67.1 ± 7.7 |  |  | >5,000 µM | >5,000 µM | >5,000 µM | >5,000 µM | above 5 mM |  |  |  |  |  |  | high BBB permeation | 7.92 ± 0.36 | 17.8 ± 0.62 | 55.9 ± 5.6 | log Pe (in vitro; PAMPA-BBB): -5.10
5 | Cc1cc2c(c(C)c1CCO)C(=O)[C@@H](C)[C@H]2O [(2S,3R)-Pterosin C, (2S,3R)-pterosin C] |  |  |  | 2,940 ± 260 µM | >5,000 µM | >5,000 µM | >5,000 µM |  | Noncompetitive |  | Mixed-type |  | Noncompetitive |  |  |  | 12.8 ± 0.79 | 44.3 ± 1 | IC50 [1]: 23.1 ± 2.9 µM; Ki [7]: 33.8 µM; Ki (Electric eel AChE [8]): 16.3 µM; Ki (horse serum BChE [9]): 29.9 µM; log Pe (in vitro): -5.65; Papp at 4 h, 25 µg/mL (in vitro; pH 7.4): 2.34 ± 0.81 ×10⁻⁶ cm/s
6 | Cc1cc2c(c(C)c1CCOC1OC(CO)C(O)C(O)C1O)C(=O)C(C)(C)C2O [(3S)-Pteroside D, (3S)-pteroside D] | 10.7 ± 1.5 | 27.4 ± 1.2 | 19.3 ± 0.17 | 1,320 ± 86 µM | >5,000 µM | >5,000 µM | >5,000 µM |  | Mixed-type | 16.5 | Mixed-type | 23.1 | Mixed-type | 19.7 | very low BBB permeability |  |  |  | 
